# Test results published in PubChem BioAssay (NCI).
#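 These data come from cells grown in 96-well plates and exposed to compound for 48 hours at five concentrations. At the GI50, growth is halved. Definition used: TGI = concentration required for complete inhibition of growth.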
# Assays:
# Assay in all cases: inhibition of tumour cell growth, NCI panel, 48 h
# OVCAR-4 ovarian = system: OVCAR-4 ovarian
# UACC-62 melanoma = system: UACC-62 melanoma
# M14 melanoma = system: M14 melanoma
# HCC-2998 colon = system: HCC-2998 colon
# UACC-257 melanoma = system: UACC-257 melanoma
# SK-MEL-2 melanoma = system: SK-MEL-2 melanoma
# NCI-H226 lung = system: NCI-H226 lung
# SN12C renal = system: SN12C renal
# OVCAR-3 ovarian = system: OVCAR-3 ovarian
# K-562 leukemia = system: K-562 leukemia
Structure (SMILES),TGI (OVCAR-4 ovarian) [µM],TGI (UACC-62 melanoma) [µM],TGI (M14 melanoma) [µM],TGI (HCC-2998 colon) [µM],TGI (UACC-257 melanoma) [µM],TGI (SK-MEL-2 melanoma) [µM],TGI (NCI-H226 lung) [µM],TGI (SN12C renal) [µM],TGI (OVCAR-3 ovarian) [µM],TGI (K-562 leukemia) [µM],GI50 (OVCAR-4 ovarian) [µM],GI50 (UACC-62 melanoma) [µM],GI50 (M14 melanoma) [µM],GI50 (HCC-2998 colon) [µM],GI50 (UACC-257 melanoma) [µM],GI50 (SK-MEL-2 melanoma) [µM],GI50 (NCI-H226 lung) [µM],GI50 (SN12C renal) [µM],GI50 (OVCAR-3 ovarian) [µM],GI50 (K-562 leukemia) [µM]
O=C(/C=C/c1ccccc1)CCC1C(=O)NC(=O)NC1=O,> 100,> 100,> 100,> 100,> 100,> 100,> 100,> 100,> 100,> 100,,,,,,,,,,
Cc1ccc(C(=O)NC2CCCCC2)cc1-c1ccc(C(=O)NCC2CC2)cc1,> 25,> 25,> 25,> 25,> 25,> 25,> 25,> 25,> 25,> 25,> 25,17,> 25,> 25,> 25,> 25,> 25,> 25,> 23,19.4
CCOC(=O)c1c(Cl)c2c(n1Cc1cc(OC)cc(OC)c1)-c1oncc1CCC2,> 85.3,> 100,> 100,> 100,> 100,4.07,> 100,> 100,2.51,> 100,1.91,0.193,0.266,15.4,0.92,0.226,6.84,0.77,0.253,0.225
CO[C@H]1CC[C@@]2(C)C(=CC[C@H]3[C@@H]4C[C@H](O)C[C@@]4(C)CC[C@@H]32)C1,54.2,16.9,16.2,27.2,17.9,6.83,27.8,22,5.63,16,8.82,3.88,3.61,11.6,4.89,2.74,13.8,6.61,2.47,2.78
COc1ccccc1NC(=O)C1=C(C)NC(C)=C(C(=O)Nc2ccccc2OC)C1c1ccccc1OC,> 100,> 100,> 100,> 100,> 100,> 100,> 100,> 100,> 100,> 100,,,,,,,,,,
CC(=O)OCC1OC(S[As](C)C)C(OC(C)=O)C1OC(C)=O (centres undefined),8.09,1.52,0.726,1.76,7.06,7.82,6.27,1.51,0.151,0.618,1.15,0.357,0.193,0.255,1.57,1.2,1.63,0.33,0.0391,0.0721
NC(=S)N/N=C(/C(=O)Nc1nc2ccc([N+](=O)[O-])cc2s1)C1C(=O)NC(=S)NC1=O,> 100,> 100,> 100,> 100,> 100,> 100,> 100,> 100,> 100,> 100,,,,,,,,,,
O=S1c2ccc(Cl)cc2CC(SSC2Cc3cc(Cl)ccc3S(=O)c3ccccc32)c2ccccc21 (centres undefined),> 100,> 100,> 100,> 100,> 100,> 100,> 100,> 100,> 100,> 100,,,,,,,,,,
COC(=O)C1=CC2OC13CC1CCC3(C2=O)C1(C)C (centres undefined),23.3,30.6,28.3,27.8,24.1,28.7,34.2,26.4,20,56.4,,,,,,,,,,
CCOC(=O)/C=C1\Nc2ccccc2-n2nnnc21,> 100,> 100,> 100,> 100,> 100,> 100,> 100,> 100,> 100,> 100,,,,,,,,,,
Nc1nccc(Nc2ccc(S(N)(=O)=O)cc2)n1,> 100,> 100,> 100,> 100,> 100,> 100,> 100,> 100,> 100,> 100,,,,,,,,,,
COC(=O)Nc1nc2ccc(Oc3ccc(NC(=O)Nc4cccc(Cl)c4)cc3)cc2[nH]1,8.19,4.78,> 11.8,> 25,19.5,8.06,24.3,11.7,2.23,> 25,3.05,0.712,1.25,7.98,1.7,1.07,2.46,2.06,0.768,0.175
O=C1/C(=C/c2ccc(Cl)cc2)CN(C(=O)C(Cl)Cl)C/C1=C\c1ccc(Cl)cc1,1.32,0.426,0.749,0.345,1.55,3.07,0.454,0.541,0.407,> 68.9,0.283,0.19,0.242,0.182,0.465,1.18,0.211,0.203,0.151,0.0469
O=C(O)CC1(C(=O)O)CCCCC1,> 100,> 100,> 100,> 100,> 100,> 100,> 100,> 100,> 100,> 100,,,,,,,,,,
O=C1/C(=C/C(Cl)=C/c2ccccc2)SC(=S)N1CCc1ccc(O)cc1,35.8,3.04,9.7,3.72,3.61,7.42,7.16,4.12,4.34,> 100,3.19,1.33,2.42,1.91,1.39,2.56,2.17,1.51,1.91,2.17
CCCCCCCCCC(=O)OCC1OC(n2cc(F)c(=O)[nH]c2=O)C(N)C(OC(=O)CCCCCCCCC)C1O (centres undefined),31,32.7,34.3,33.3,39,29.6,,32.2,32.7,36.7,,,,,,,,,,
